Measurements from paper PMC10287695, “Non-covalent inhibitors of thioredoxin glutathione reductase with schistosomicidal activity in vivo” (Nature Communications, 2023).
Where “and” joins values, the source holds several entries; their conditions need not be identical. Identical values can stand only once. Like-named read-outs stand apart in the source and are kept apart here. Marks after values point to notes of the source that are not given here.

Columns and labels:
S. mansoni adult worms = test: Schistosomicidal activity ex vivo, adult worms (Cell Titer Glo), alone or with channel blockers; assay type: cell-based; conditions: for LD50 ex vivo S. mansoni adult: 24 h exposure, compound alone; for viability at 10 µM: Conc. 10 µM; for viability at 25 µM: Conc. 25 µM; for viability at 35 µM: Conc. 35 µM
Experimental: Three-week old, female Swiss-Webster mice obtained from the Charles River were housed in the Comparative Research Center of Rush University Medical Center. Mice were infected by percutaneous tail exposure to about 200 S. mansoni or 50 S. japonicum cercaria for adult worms and about 1000 cercaria for juvenile S. mansoni worms through natural transdermal penetration of the cercariae for 1 h[81].
DMSO formulated compounds were diluted with phenol red free M199 medium or RPMI medium for NTS or juvenile and adult worms, respectively, at <1% DMSO final concentrations. NTS, juvenile and adult worms from overnight cultures were tested against compounds in triplicate. Controls were treated with DMSO alone or 5 µM AF as a positive control in appropriate medium. […] Schistosome viabilities in the presence of the compounds were assessed using this formula: % Viability = Averages of Test / Averages of DMSO Control x 100.

[1] = test system: TGR in newly transformed schistosomula (NTS); test: TGR inhibition in NTS with TRFS-Green fluorescent probe; assay type: cell-based, S. mansoni; conditions: for TRFS-Green fluorescence in NTS: 2 h with inhibitor (30 µM; AF 3 µM) then TRFS-Green 10 µM; for production of green fluorescent dye in TRFS-green assay: compound at 5 µM
Method in brief: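 TGR activity in NTS was probed with the fluorescent reagent TRFS-Green. Parasites in M199 medium with glucose, antibiotics and heat-inactivated serum were kept overnight in clear-bottom plates, exposed to 10 µM probe for 4 h, then washed. Signal from probe uptake was read on a microplate imager (ex 438 nm, em 538 nm) hourly for 5 h and after 24 h.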

[2] = test system: S. mansoni newly transformed schistosomula (NTS); test: Schistosomicidal activity ex vivo, NTS (Cell Titer Glo); assay type: cell-based; conditions: for LD50 ex vivo S. mansoni NTS: 24 h exposure, Cell TiterGlo; for % viability: S. mansoni NTS
Experimental: Oncomelania hupensis subsp. hupensis, Chinese strain, infected with S. japonicum, Chinese strain, and Biomphalaria glabrata, strain NMRI, infected with S. mansoni, strain NMRI, were provided by the NIAID Schistosomiasis Resource Center for distribution through BEI Resources, NIAID, NIH. After infections were patent, snails were exposed to bright light for 1 hr to obtain cercariae. Cercariae were mechanically transformed to schistosomula. Briefly, cercariae were placed on ice for 30 min and then centrifuged at 350 × g for 10 mins. The supernatant was decanted and 2 ml of serum-free M199 medium was added to cercarial pellets and vortexed for 1 min until cercarial tails were detached. NTS were purified by layering on 4 °C Percoll gradient suspension containing Eagle’s minimum essential medium, penicillin-streptomycin (10,000 U per ml penicillin/10,000 U per ml streptomycin), and 1 M HEPES in 0.85% NaCl with cercariae suspension and centrifuged at 500 × g for 15 min. Cercarial pellets were resuspended and washed thrice in serum-free M199 medium and collected at 100 × g for 5 min. NTS (240) were transferred to U-bottom 96 well assay plates containing 200 µl of M199 medium supplemented with 5.5 mM D-glucose, penicillin-streptomycin and 5% heat inactivated fetal bovine serum and incubated at 37 °C in a 5% CO2 incubator overnight.
DMSO formulated compounds were diluted with phenol red free M199 medium or RPMI medium for NTS or juvenile and adult worms, respectively, at <1% DMSO final concentrations. NTS, juvenile and adult worms from overnight cultures were tested against compounds in triplicate. Controls were treated with DMSO alone or 5 µM AF as a positive control in appropriate medium. Worm viability was assessed at 24 or 72 h by measuring ATP content of worms using Cell Titer Glo Assay (Promega) as described. Schistosome viabilities in the presence of the compounds were assessed using this formula: % Viability = Averages of Test / Averages of DMSO Control x 100.

Vero cells = test: Cytotoxicity in mammalian cells (Cell Titer Glo); assay type: cell-based; conditions: for EC50: Chlorocebus sabaeus, Vero, estimate from raw data, read-out: EC50 viability of Vero cells
Experimental: Following overnight incubation, formulated DMSO-compound stock solutions were diluted with DMEM at <1% DMSO final concentrations. […] Vero cells treated similarly with different concentrations of PZQ, MZM and AF (Cayman Chemicals) were used as positive controls.

Human GR = biological target: T1, Human GR (Homo sapiens, UniProt P00390); test: Human GR enzyme inhibition (GSSG reduction, NADPH oxidation); assay type: biochemical; conditions: for inhibition at 15 µM / inhibition at 30 µM / inhibition at 66.7 µM: hGR, read-out: % inhibition; for inhibition at 15 µM: compound 15 µM; for inhibition at 30 µM: compound 30 µM; for inhibition at 66.7 µM: compound 66.7 µM
T1 construct: made in house
T1 sequence (P00390 44-522): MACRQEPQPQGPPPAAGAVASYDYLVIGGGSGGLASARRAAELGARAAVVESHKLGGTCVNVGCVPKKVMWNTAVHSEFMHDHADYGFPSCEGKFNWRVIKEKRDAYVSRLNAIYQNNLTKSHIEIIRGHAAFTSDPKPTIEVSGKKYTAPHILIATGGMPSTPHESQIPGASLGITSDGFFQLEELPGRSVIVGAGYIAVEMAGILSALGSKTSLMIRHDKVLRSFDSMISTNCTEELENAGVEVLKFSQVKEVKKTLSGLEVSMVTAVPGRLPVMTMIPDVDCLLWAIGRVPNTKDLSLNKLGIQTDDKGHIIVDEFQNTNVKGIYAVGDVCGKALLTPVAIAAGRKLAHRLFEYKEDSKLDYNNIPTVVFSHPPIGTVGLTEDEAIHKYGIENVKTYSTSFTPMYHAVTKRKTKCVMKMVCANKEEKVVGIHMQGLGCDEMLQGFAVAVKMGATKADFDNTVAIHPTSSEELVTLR

[3] = Schistosoma mansoni, S. mansoni adult worms, Conc. 5 µM, read-out: % viability
[4] = Schistosoma mansoni, S. mansoni adult worms, read-out: % viability
[5] = Schistosoma mansoni, S. mansoni adult worms
[6] = Schistosoma mansoni, 72 h, read-out: % viability, S. mansoni NTS

SMILES	LD50 ex vivo S. mansoni adult (S. mansoni adult worms)	TRFS-Green fluorescence in NTS [1]	LD50 ex vivo S. mansoni NTS [2] [µM]	viability at 5 µM (S. mansoni adult worms; [3]) [%]	Human GR (inhibition at 66.7 µM) (Human GR)	inhibition at 15 µM (Human GR; 15 minutes pre-incubation) [%]	inhibition at 30 µM (Human GR; 15 minutes pre-incubation) [%]	inhibition at 15 µM (Human GR; 6 hours pre-incubation) [%]	inhibition at 30 µM (Human GR; 6 hours pre-incubation) [%]	LD50 NTS after 72 h exposure [2] [µM]	viability at 5 µM ([2]; Schistosoma mansoni) [%]	viability at 15 µM ([2]; Schistosoma mansoni) [%]	viability at 30 µM ([2]; Schistosoma mansoni) [%]	viability at 50 µM ([2]; Schistosoma mansoni) [%]	LD50 ex vivo VERO (Vero cells; African green monkey, 24 h)	EC50 (Vero cells) [µM]	inhibition at 66.7 µM (Human GR; 15 minutes pre-incubation) [%]	inhibition at 66.7 µM (Human GR; 6 hours pre-incubation) [%]	other results
CC(=O)OC[C@H]1O[C@@H]([S-])[C@H](OC(C)=O)[C@@H](OC(C)=O)[C@@H]1OC(C)=O.CCP(CC)CC.[Au+] [AF, auranofin, reference compound]	1.1 ± 0.04 µM	significant decreases in fluorescence	0.31 ± 0.02	–	–	–	–	–	–	–	–	–	–	–	–	–	–	–	% viability (S. mansoni adult worms; S. mansoni adult worms, Conc. 0.5 µM): 85.422%; % viability (S. mansoni adult worms; S. mansoni adult worms, Conc. 1 µM): 43.1217%; % viability (S. mansoni adult worms; S. mansoni adult worms, Conc. 2 µM): 23.1816%; % viability (S. mansoni adult worms; S. mansoni adult worms, Conc. 5 µM): 3.259%; % viability ([2]; Conc. 0.25 µM): 60.0497%; % viability ([2]; Conc. 0.5 µM): 36.3261%; % viability ([2]; Conc. 1 µM): 18.3613%; % viability ([2]; Conc. 2 µM): 10.7245%; % viability ([2]; Conc. 5 µM): 0.4904%; % viability (Vero cells; 0.5 µM): 57.3284%; % viability (Vero cells; 1 µM): 33.3378%; % viability (Vero cells; 5 µM): 0.2783%; % viability (Vero cells; 10 µM): 0.2356%; % viability (Vero cells; 20 µM): 0.164%; % viability (Vero cells; 30 µM): 0.07463%; LD50 ex vivo VERO (Vero cells; 24-hour exposure): 0.59 ± 0.11 µM
Cc1oc(-c2ccc3c(c2)OCO3)nc1CN[C@@H]1C[C@@H]2C[C@H]([C@H]1C)C2(C)C [Compound 1]	12.3 ± 1.30 µM	significant decreases in fluorescence	5.9 ± 0.25	77.3	n.i.	-1.22	-0.832	-0.519	-1.06	2.2 ± 0.19	52.7	30	24.6	17.6	>75.5^a µM	> 200	–	–	viability at 10 µM (S. mansoni adult worms; [4]): 58.4%; viability at 25 µM (S. mansoni adult worms; [4]): 0.888%; viability at 35 µM (S. mansoni adult worms; [5]): 0.238%; production of green fluorescent dye in TRFS-green assay [1]: abolished; viability at 1 µM ([2]; Schistosoma mansoni): 89.9%; viability at 0.25 µM [2, 6]: 92.1%; viability at 1 µM [2, 6]: 71.2%; viability at 3 µM [2, 6]: 48.1%; viability at 6 µM [2, 6]: 23.4%
CCc1ccccc1-c1nc(CN[C@@H]2C[C@@H]3C[C@H]([C@H]2C)C3(C)C)c(C)o1 [Compound 2]	12.5 ± 0.40 µM	significant decreases in fluorescence	0.6 ± 0.21	86.9	n.i.	-0.995	-1.9	-5.17	-3.97	0.18 ± 0.007	0.373	0.0945	0.0764	0.0707	54.7 ± 6.65 µM	> 50	-0.827	-3.29	viability at 10 µM (S. mansoni adult worms; [4]): 59.5%; viability at 25 µM (S. mansoni adult worms; [4]): 0.114%; viability at 35 µM (S. mansoni adult worms; [5]): 0.0801%; production of green fluorescent dye in TRFS-green assay [1]: abolished; viability at 1 µM ([2]; Schistosoma mansoni): 47.9%; viability at 0.125 µM [2, 6]: 65%; viability at 0.25 µM [2, 6]: 40.4%; viability at 0.5 µM [2, 6]: 3.04%; viability at 1 µM [2, 6]: 0.411%
Cc1oc(-c2ccccc2)nc1CN[C@@H]1C[C@@H]2C[C@H]([C@H]1C)C2(C)C [Compound 3]	12.1 ± 2.44 µM	–	4.3 ± 0.20	–	n.i.	–	–	–	–	–	–	–	–	–	36.1 ± 3.0 µM	> 50	–	–	–
Cc1oc(C2CCCCC2)nc1CN[C@@H]1C[C@@H]2C[C@H]([C@H]1C)C2(C)C [Compound 4]	12.6 ± 1.86 µM	significant decreases in fluorescence	0.85 ± 0.11	–	n.i.	–	–	–	–	–	–	–	–	–	>50^a µM	–	–	–	–
Cc1oc(-c2ccc3ccccc3c2)nc1CNC1CCCCCC1 [Compound 5]	9.36 ± 0.47 µM	–	5.8 ± 0.15	–	n.i.	–	–	–	–	–	–	–	–	–	>50^a µM	–	–	–	–
C#CCN(Cc1nc(-c2ccccc2)oc1C)[C@@H]1C[C@@H]2C[C@H]([C@H]1C)C2(C)C [Compound 6]	15.7 ± 0.64 µM	–	17.5 ± 3.7	88.5	n.i.	-0.749	–	-0.648	–	7.8 ± 2.36	81.1	57	30.8	26.4	>100^a µM	–	-0.295	-0.21	viability at 15 µM (S. mansoni adult worms; Schistosoma mansoni, S. mansoni adult worms, Conc. 15 µM, read-out: % viability): 50.6%; viability at 30 µM (S. mansoni adult worms; Schistosoma mansoni, S. mansoni adult worms, Conc. 30 µM, read-out: % viability): 42%; viability at 50 µM (S. mansoni adult worms; Schistosoma mansoni, S. mansoni adult worms, Conc. 50 µM, read-out: % viability): 23.3%; viability at 1.25 µM [2, 6]: 86%; viability at 2.5 µM [2, 6]: 73.8%; viability at 5 µM [2, 6]: 55.5%; viability at 10 µM [2, 6]: 45.1%
CC1C(NCc2cn(C3OCC(O)C(O)C3O)c3ccccc23)CC2CC1C2(C)C (centres unmarked) [Compound 9]	>100^a µM and >100 µM	–	11.14 ± 1.04	–	n.i.	-0.142	-2.5	-0.844	-1.45	–	–	–	–	–	>50^a µM	> 200	-1.69	-3.11	viability at 5 µM (S. mansoni adult worms; Schistosoma mansoni, S. mansoni adult worms, 5 µM, relative to Worm + RPMI control, read-out: % viability): 99.2%; viability at 15 µM (S. mansoni adult worms; Schistosoma mansoni, S. mansoni adult worms, 15 µM, relative to Worm + RPMI control, read-out: % viability): 91.1%; viability at 30 µM (S. mansoni adult worms; Schistosoma mansoni, S. mansoni adult worms, 30 µM, relative to Worm + RPMI control, read-out: % viability): 88.8%; viability at 50 µM (S. mansoni adult worms; Schistosoma mansoni, S. mansoni adult worms, 50 µM, relative to Worm + RPMI control, read-out: % viability): 83.3%; viability at 100 µM (S. mansoni adult worms; Schistosoma mansoni, S. mansoni adult worms, 100 µM, relative to Worm + RPMI control, read-out: % viability): 78.4%
